Measurements taken from patent publication US9656953B2, “Inhibition of cell proliferation” (University of South Florida, priority 2005, dated 2017).
“Also recorded” adds a separate entry of the source. Where two headings read alike, the source gives them in different places.

Tests used:
Rb:Raf-1 binding = biological target: T1, Rb:Raf-1 binding (Homo sapiens, UniProt P04049+P06400); assay: GST-Rb/GST-Raf-1 ELISA; conditions: for fold less active compared to 3a: IC50 ratio to 3a; for Rb:Raf-1 binding inhibitory activity in words: ELISA
T1 construct: a glutathione S-transferase (GST) Raf-1 (1-149aa) overnight at 4° C; made in house
T1 sequence (P04049 1-149 limits assumed): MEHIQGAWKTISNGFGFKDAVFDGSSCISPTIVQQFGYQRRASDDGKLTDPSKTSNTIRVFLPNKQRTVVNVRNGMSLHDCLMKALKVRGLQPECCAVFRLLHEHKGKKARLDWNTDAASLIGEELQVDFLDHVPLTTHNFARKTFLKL
T1 sequence (P06400 whole entry): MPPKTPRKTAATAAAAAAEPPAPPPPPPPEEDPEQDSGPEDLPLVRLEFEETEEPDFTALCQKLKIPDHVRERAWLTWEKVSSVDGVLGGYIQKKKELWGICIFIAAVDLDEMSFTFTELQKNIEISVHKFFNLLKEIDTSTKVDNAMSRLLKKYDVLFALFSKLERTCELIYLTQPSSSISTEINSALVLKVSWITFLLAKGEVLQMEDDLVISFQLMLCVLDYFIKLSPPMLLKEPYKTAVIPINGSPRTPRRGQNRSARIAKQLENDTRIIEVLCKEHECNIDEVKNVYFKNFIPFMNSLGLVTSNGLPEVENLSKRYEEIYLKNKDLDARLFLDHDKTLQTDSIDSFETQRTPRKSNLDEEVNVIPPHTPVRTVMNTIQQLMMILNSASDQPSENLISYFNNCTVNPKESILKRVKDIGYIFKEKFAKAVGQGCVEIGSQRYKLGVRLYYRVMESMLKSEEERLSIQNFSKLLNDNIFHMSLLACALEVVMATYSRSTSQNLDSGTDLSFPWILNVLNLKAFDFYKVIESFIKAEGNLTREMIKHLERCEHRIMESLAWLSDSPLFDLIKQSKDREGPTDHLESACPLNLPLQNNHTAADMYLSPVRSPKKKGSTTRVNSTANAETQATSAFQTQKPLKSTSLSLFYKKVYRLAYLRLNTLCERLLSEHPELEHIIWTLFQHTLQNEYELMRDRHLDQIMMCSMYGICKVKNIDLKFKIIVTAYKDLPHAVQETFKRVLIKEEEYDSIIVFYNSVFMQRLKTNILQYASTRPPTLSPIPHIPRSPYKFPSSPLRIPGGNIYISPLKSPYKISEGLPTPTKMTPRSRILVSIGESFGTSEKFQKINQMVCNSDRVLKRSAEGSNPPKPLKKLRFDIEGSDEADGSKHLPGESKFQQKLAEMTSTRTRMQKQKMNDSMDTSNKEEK
Description: In vitro library screening assays. Enzyme Linked ImmunoSorbent Assay (ELISA) 96-well plates were coated with 1 μg/mL of a glutathione S-transferase (GST) Raf-1 (1-149aa) overnight at 4° C. Subsequently the plates were blocked and GST Rb at 20 μg/mL was rotated at room temperature (RT) for 30 minutes in the presence or absence of the compounds at 20 micromolar (μM). GST-Rb +/− compounds were then added to the plate and incubated for 90 minutes (min) at 37° C. The amount of Rb bound to Raf-1 was detected by Rb polyclonal antibody (Santa Cruz Biotechnology, Santa Cruz, Calif.) 1:1000 incubated for 60 min at 37° C. Donkey-anti-rabbit-IgG-HRP (1:10,000) was added to the plate and incubated at 37° C. for 60 minutes. The color was developed with orthophenylenediamine (Sigma, St. Louis, Mo.) and the reaction was terminated with 3 molar (M) H2SO4. Absorbance was read at 490 nanometers (nm). To determine disruption of Rb to E2F1, Phb, or HDAC1 the above protocol was used with the exception of coating GST Rb on the ELISA plate and adding the drugs in the presence or absence of GST E2F1, Phb, or HDAC1. […] Prohibitin monoclonal antibody was used at 1:1000 to detect the amount of Rb bound to Prohibitin. For disruption of MEK-Raf-1 binding ELISAs, Raf-1 1 microgram/milliliter (μg/mL) was coated on the plate and GST-MEK (20 μg/mL) was incubated +/− the compounds for 30 minutes at room temperature. Mek1 polyclonal antibody was used at 1:1000 to detect the binding of Raf-1 to Mek1. The IC50 concentrations for the Rb:Raf-1 inhibitors were determined by plotting with Origin 7.5 software (Origin, Northampton, Mass.).
A screen was developed to identify small molecule inhibitors of the Rb:Raf-1 interaction. A diversity set, comprising 1981 compounds (National Cancer Institute, Bethesda, Md.) was examined using a glutathione S-transferase-retinoblastoma/glutathione S-transferase-Raf-1 kinase Enzyme-Linked ImmunoSorbent Assay screen (GST-Rb/GST-Raf-1 ELISA).

[1] = biological target: binding of Raf-1 to Rb in U937 cells (Homo sapiens, UniProt P04049+P06400); assay: Immunoprecipitation-Western blot, serum stimulated U937 cells; conditions: U937 cells serum stimulated 2 hours, 20 μM
binding of Raf-1 to Rb in U937 cells, sequence (P06400 whole entry): as above
binding of Raf-1 to Rb in U937 cells, sequence (P04049 whole entry): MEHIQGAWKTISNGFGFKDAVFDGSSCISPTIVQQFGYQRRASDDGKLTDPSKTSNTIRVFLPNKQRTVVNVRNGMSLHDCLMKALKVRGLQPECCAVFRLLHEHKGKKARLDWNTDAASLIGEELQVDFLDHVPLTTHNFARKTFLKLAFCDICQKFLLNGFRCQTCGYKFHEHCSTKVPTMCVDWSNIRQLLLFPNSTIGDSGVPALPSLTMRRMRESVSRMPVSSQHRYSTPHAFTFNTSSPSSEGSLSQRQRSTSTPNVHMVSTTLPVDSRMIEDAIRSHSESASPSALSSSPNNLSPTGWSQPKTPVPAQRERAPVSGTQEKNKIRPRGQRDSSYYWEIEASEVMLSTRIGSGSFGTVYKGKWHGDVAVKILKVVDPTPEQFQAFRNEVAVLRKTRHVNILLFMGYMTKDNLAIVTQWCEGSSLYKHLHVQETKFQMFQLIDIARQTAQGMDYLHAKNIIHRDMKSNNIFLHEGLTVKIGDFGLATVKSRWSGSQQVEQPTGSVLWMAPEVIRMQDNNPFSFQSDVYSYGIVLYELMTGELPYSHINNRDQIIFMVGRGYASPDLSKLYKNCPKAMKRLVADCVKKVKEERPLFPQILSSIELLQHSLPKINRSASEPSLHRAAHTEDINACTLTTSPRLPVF
Description: Lysate preparation, pmmunoprecipitation, and pestern plotting. Lysates from cells treated with different agents were prepared by NP-40 lysis as described earlier (Wang 1998). […] Physical interaction between proteins in vivo was analyzed by immunoprecipitation—Western blot analyses with 200 μg of lysate with 1 μg of the indicated antibody as previously described (Wang 1998). Polyclonal E2F1 and Cyclin D were obtained from Santa Cruz Biotechnology. Monoclonal Rb and Raf-1 were supplied by BD Transduction laboratories (San Jose, Calif.). Polyclonal antibodies to phospho-Rb (807,811) phospho-MEK1/2, MEK1/2, phospho-Erk1/2 and ERK1/2 were supplied by Cell Signaling (Danvers, Mass.).
U937 cells were serum starved for 48 hours and subsequently serum stimulated for 2 hours in the presence or absence of 20 μM of the compounds.

[2] = test system: Human aortic endothelial cells (HAECs); assay: Matrigel angiogenic tubule formation; format: cell-based; conditions: 20 μM
Description: Matrigel assays. […] A total of 100 μl of thawed Matrigel was added to 96-well tissue culture plates, followed by incubation at 37° C. for 60 minutes to allow polymerization. […] Capillary tube formation assessed by using a Leica DMIL phase contrast microscope.
An experiment was performed to determine whether angiogenic tubule formation could be inhibited by the disclosed compounds.

[3] = biological target: binding of Raf-1 to GST Rb beads (Homo sapiens, UniProt P04049+P06400); assay: GST pull-down, U937 lysates; conditions: 20 μM, asynchronous U937 lysates, western blotting
binding of Raf-1 to GST Rb beads, sequence (P06400 whole entry): as the sequence (P06400 whole entry) above
binding of Raf-1 to GST Rb beads, sequence (P04049 whole entry): as the sequence (P04049 whole entry) above
Description: First, 200 micrograms (μg) of U937 asynchronous lysates were pre-incubated with 10 μM of the indicated drugs or 1 μM of the Raf-1 peptide for 30 minutes at 4° C. Next, 200 μg of the U937 lysates were incubated with glutathione beads carrying an equal amount of the GST fusion proteins in 2001 of protein binding buffer (20 mM Tris [pH 7.5], 50 mM KCL, 0.5 mM EDTA, 1 mM dithiothreitol, 0.5% NP-40, 3 mg of bovine serum albumin/mL) at 4° C. for 2 h.
Asynchronous U937 lysates were incubated with GST-Rb beads in the presence or absence of the selected compounds or an 8 amino acid Raf-1 peptide and the binding of Raf-1 assessed by western blotting.

[4] = test system: Rb phosphorylation (serines 807 and 811); assay: Western blot of Rb phosphorylation, A549 cells; format: cell-based, human; conditions: cells treated 18 hours, western blotting
From the text: Lysate preparation, pmmunoprecipitation, and pestern plotting.

[5] = IC50 (nM), inhibition of the Rb:Raf-1 binding, concentration that inhibits the Rb:Raf-1 binding by 50%, triplicate
[6] = inhibition of Rb:Raf-1 binding, compound at 20 μM, read-out: % Inhibition at 20 μM
[7] = values in μM, read-out: IC50, Rb:Raf-1 binding
[8] = concentration that inhibits the Rb:Raf-1 binding by 50%, triplicate, read-out: IC50 (nM), inhibition of the Rb:Raf-1 binding
[9] = inhibition of Rb:Raf-1 binding, compound at 20 μM
[10] = inhibition of Rb:Raf-1 binding, compound at 20 μM, 20 µM

SMILES	inhibition at 20 µM (Rb:Raf-1 binding; [6])	also measured
N=C(N)SCc1ccc(Cl)cc1Cl [(1), 2,4-dichlorobenzyl carbamimidothioate]	–	IC50 (Rb:Raf-1 binding; [5]): 81 ± 4 nM; inhibition at 20 µM (Rb:Raf-1 binding; read-out: % Inhibition at 20 μM, inhibition of Rb:Raf-1 binding, compound at 20 μM): 100%; binding of Raf-1 to Rb in intact cells [1]: inhibited the binding of Raf-1 to Rb significantly; angiogenic tubule formation in matrigel [2]: inhibit angiogenic tubule formation; also recorded: significantly inhibited the angiogenic tubule formation; binding of Raf-1 to GST Rb beads [3]: inhibited the binding of GST Rb beads to endogenous Raf-1
CNC(=O)c1cc(Oc2ccc(NC(=O)Nc3ccc(Cl)c(C(F)(F)F)c3)cc2)ccn1 [BAY43-9006, sorafenib, reference compound]	–	Rb phosphorylation [4]: did not seem to have any effect on Rb phosphorylation
N=C(N)SCc1ccccc1Cl [Compound 3b, 2-chlorobenzylisothiourea]	100%	IC50 (Rb:Raf-1 binding; [7]): 575 nM
N=C(N)SCc1ccc(Cl)c(F)c1 [Compound 3c]	100%	IC50 (Rb:Raf-1 binding; [7]): 81 nM
Cl.N=C(N)SCc1cccc(Cl)c1Cl [Compound 3d]	100%	fold less active compared to 3a (Rb:Raf-1 binding): more than 2 fold; IC50 (Rb:Raf-1 binding; [8]): 164 nM
N=C(N)SCc1cccc(Cl)c1 [Compound 3e, 3-chlorobenzylisothiourea]	100%	IC50 (Rb:Raf-1 binding; [7]): 230 nM
N=C(N)SCc1ccc(Cl)c(C(F)(F)F)c1 [Compound 3f]	94%	IC50 (Rb:Raf-1 binding; [7]): 312 nM
N=C(N)SCc1ccc(Cl)cc1 [Compound 3g, 4-chlorobenzylisothiourea]	88%	IC50 (Rb:Raf-1 binding; [8]): 274 nM
Cl.N=C(N)SCc1ccc(Cl)c(Cl)c1 [Compound 3h]	81%	fold less active compared to 3a (Rb:Raf-1 binding): 50 fold; IC50 (Rb:Raf-1 binding; [8]): 3900 nM
N=C(N)SCc1cc(Cl)ccc1Cl [Compound 3i]	79%	IC50 (Rb:Raf-1 binding; [8]): 2110 ± 180 nM
N=C(N)SCc1ccc(C(F)(F)F)cc1C(F)(F)F [Compound 3j]	53%	–
CC(C)(C)c1ccc(CSC(=N)N)cc1 [Compound 3k]	52%	–
N=C(N)SCc1ccc2c(c1)OCO2 [Compound 3l]	49%	–
N=C(N)SCc1ccc([N+](=O)[O-])cc1 [Compound 3m]	46%	–
N=C(N)SCc1ccc(C(F)(F)F)cc1 [Compound 3n]	46%	–
COc1ccc(CSC(=N)N)cc1 [Compound 3o]	45%	–
Cc1ccc(CSC(=N)N)cc1 [Compound 3p]	44%	–
COc1cc(CSC(=N)N)cc(OC)c1OC [Compound 3q]	20%	–
Cl.N=C(N)SCc1ccccc1 [Compound 3r]	0%	Rb:Raf-1 binding inhibitory activity in words (Rb:Raf-1 binding): inactive
Cl.N=C(N)SCc1c(Cl)cccc1Cl [Compound 3s]	0%	Rb:Raf-1 binding inhibitory activity in words (Rb:Raf-1 binding): inactive
Cl.N=C(N)SCc1c(Cl)cc(Cl)cc1Cl [Compound 3t]	0%	Rb:Raf-1 binding inhibitory activity in words (Rb:Raf-1 binding): inactive

SMILES	inhibition at 20 µM (Rb:Raf-1 binding; [6])	also measured
CC(SC(=N)N)c1ccc(Cl)cc1Cl (stereo not shown) [Compound 4a]	100%	IC50 (Rb:Raf-1 binding; [8]): 322 nM
CC(SC(=N)N)c1ccc(Cl)c(Cl)c1 (stereo not shown) [Compound 4b]	99%	IC50 (Rb:Raf-1 binding; [8]): 510 ± 116 nM
CCC(SC(=N)N)c1ccc(Cl)cc1Cl (stereo not shown) [Compound 4c]	100%	IC50 (Rb:Raf-1 binding; [8]): 567 nM
N=C(N)SC(c1ccccc1)c1ccccc1 [Compound 4d]	21%	–
N=C(N)SC(Cc1ccccc1)c1ccc(Cl)cc1Cl (stereo not shown) [Compound 4e]	32%	–
N=C(N)SCc1ccc2ccccc2c1Br [Compound 5a]	100%	IC50 (Rb:Raf-1 binding; [8]): 80 nM
N=C(N)SCc1ccncc1 [Compound 5b]	94%	IC50 (Rb:Raf-1 binding; [8]): 2630 ± 330 nM
Cl.N=C(N)SCc1ccc(Cl)c2ccccc12 [Compound 5c]	–	IC50 (Rb:Raf-1 binding; [5]): 1900 nM; fold reduction of activity relative to 5a (Rb:Raf-1 binding; IC50 ratio to 5a): 24 fold; % Inhibition at 20 μM (Rb:Raf-1 binding; [9]): 93%
N=C(N)SCc1ccc2ccccc2n1 [Compound 5d]	76%	–
N=C(N)SCc1ccc2c(c1)C(=O)c1ccccc1C2=O [Compound 5e]	56%	–
N=C(N)SCc1c2ccccc2cc2ccccc12 [Compound 5f]	22%	–
N=C(N)NCc1ccc(Cl)cc1 [Compound 6a]	–	IC50 (Rb:Raf-1 binding; [8]): 539 nM; % Inhibition at 20 μM (Rb:Raf-1 binding; [10]): 100%
Cl.N=C(N)NCc1ccc(Cl)cc1 [Compound 6b]	–	% Inhibition at 20 μM (Rb:Raf-1 binding; [9]): 61%
N=C(N)NCc1ccc(Cl)cc1Cl [Compound 6c]	61%	–
Cl.N=C(N)NCc1ccccc1Cl [Compound 6d]	–	% Inhibition at 20 μM (Rb:Raf-1 binding; [9]): 59%
N=C(N)NCc1ccccc1Cl [Compound 6e]	–	% Inhibition at 20 μM (Rb:Raf-1 binding; [9]): 25%
N=C(N)NCc1ccc(Cl)cc1 [Compound 6f]	–	% Inhibition at 20 μM (Rb:Raf-1 binding; [10]): 16%
CNc1nc(-c2ccc(F)cc2F)cs1 [Compound 7a]	53%	–
Nc1nc(-c2ccc(Cl)cc2Cl)cs1 [Compound 7b]	45%	–
CNc1nc(-c2ccc(F)cc2)cs1 [Compound 7c]	43%	–
CNc1nc(-c2ccccc2)cs1 [Compound 7d]	39%	–

SMILES	inhibition at 20 µM (Rb:Raf-1 binding; [6])	also measured
Nc1nc(-c2ccc(F)cc2F)cs1 [Compound 7e]	39%	–
CNc1nc(-c2ccc(Cl)cc2)cs1 [Compound 7f]	34%	–
CNc1nc(-c2ccc(Cl)cc2Cl)cs1 [Compound 7g]	33%	–
Nc1nc(-c2ccc(F)cc2)cs1 [Compound 7h]	32%	–
Nc1nc(-c2ccc(Cl)cc2)cs1 [Compound 7i]	29%	–
Nc1nc(-c2ccccc2)cs1 [Compound 7j]	22%	–
CNc1scc(-c2ccc(Cl)cc2)[n+]1C [Compound 8a]	37%	–
CNc1scc(-c2ccccc2)[n+]1C [Compound 8b]	22%	–
CNc1scc(-c2ccc(F)cc2)[n+]1C [Compound 8c]	19%	–
CNc1scc(-c2ccc(F)cc2F)[n+]1C [Compound 8d]	5%	–
Clc1ccc(CSc2nnc[nH]2)c(Cl)c1 [Compound 9a]	92%	IC50 (Rb:Raf-1 binding; [8]): 97 nM
Nc1nnc(SCc2ccc(Cl)cc2Cl)[nH]1 [Compound 9b]	91%	IC50 (Rb:Raf-1 binding; [8]): 131 nM
Clc1ccc(CSc2nnc[nH]2)cc1 [Compound 9c]	81%	–
Nc1nnc(SCc2ccc(Cl)cc2)[nH]1 [Compound 9d]	76%	–
Clc1ccc(CSc2ncc[nH]2)c(Cl)c1 [Compound 9e]	68%	–
Clc1ccc(CSc2ncc[nH]2)cc1 [Compound 9f]	67%	–
Clc1ccc(CSC2=NCCN2)cc1 [Compound 9g]	47%	–
Clc1ccc(CSC2=NCCN2)c(Cl)c1 [Compound 9i]	45%	–
Clc1ccc(CSc2nc3ccccc3[nH]2)c(Cl)c1 [Compound 9j]	40%	–
